Assay results reported in patent US20250243186A1, “PIPERIDINYL INDOLE DERIVATIVES, PREPARATION METHODS AND MEDICINAL USES THEREOF” (HANSOH BIO LLC, priority 2021, published 2025).

Each molecule was assayed against Recombinant human Factor B catalytic domain (Homo sapiens (Human), UniProt P00751) (assay: Factor B binding assay by TR-FRET). Conditions: Factor B TR-FRET IC50 (nM), 10 nM his-tagged Factor B catalytic domain, 100 nM tracer, 1 h.
Chain of Recombinant human Factor B catalytic domain (P00751 470-764): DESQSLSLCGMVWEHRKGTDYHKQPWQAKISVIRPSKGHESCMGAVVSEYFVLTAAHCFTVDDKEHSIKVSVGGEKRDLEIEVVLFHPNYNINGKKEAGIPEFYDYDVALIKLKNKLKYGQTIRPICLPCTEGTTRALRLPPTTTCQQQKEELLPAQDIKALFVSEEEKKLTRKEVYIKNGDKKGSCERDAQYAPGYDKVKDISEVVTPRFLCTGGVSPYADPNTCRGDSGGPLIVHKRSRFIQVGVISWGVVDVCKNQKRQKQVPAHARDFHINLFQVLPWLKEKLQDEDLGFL
Description: • 1. […] 5× Kinase Buffer A (Thermo Fisher, CAT #PV3189) • 3. LANCE Eu-W1024 Anti-6×His Antibody (PerkinElmer, CAT #AD0401) • 4.
DMSO (Thermo Fisher Scientific) • 6. Compounds—10 mM stock in DMSO • 7. Victor Nivo multimode plate reader (PerkinElmer) • 8.
Factor B binding affinity of each compound tested was determined using a time-resolved fluorescence resonance energy transfer (TR-FRET) technology. 10 nM recombinant his-tagged Factor B catalytic domain, varying concentrations of inhibitors, 4 nM LANCE Eu-W1024 Anti-6×His Antibody and 100 nM TR-FRET_tool2 tracer was incubated in 1× Kinase Buffer A for 1 h. Measurement was performed in a reaction volume of 15 μL by adding 5 μL of the test compound, 5 μL of Factor B/antibody mixture and 5 μL of tracer into white opaque 384-well assay plates.
Work on COc1cc(C)c2[nH]ccc2c1CN1CC2CC3(CC3)CC2C1c1ccc(C(=O)O)cc1 (single isomer, unassigned) [29 (Isomer 2), 4-(2-((5-methoxy-7-methyl-1H-indol-4-yl)methyl)hexahydro-1H-spiro[cyclopenta[c]pyrrole-5,1′-cyclopropan]-1-yl)benzoic acid] yielded an IC50 of 43.7 nM. In the case of Cc1cc(C2CC2)c(CN2CC3CCCC3C2c2ccc(C(=O)O)cc2)c2cc[nH]c12 (single isomer, unassigned) [32 (Isomer 1), 4-(2-((5-cyclopropyl-7-methyl-1H-indol-4-yl)methyl)octahydrocyclopenta[c]pyrrol-1-yl)benzoic acid], the IC50 is reported as 26.3 nM. COc1cc(C)c2[nH]ccc2c1CN1C[C@@H]2CC(C)(C)C[C@@H]2C1c1ccc(C(=O)O)cc1 (single isomer, unassigned) [34 (Isomer 1)] gave an IC50 of 7.7 nM. COc1cc(C)c2[nH]ccc2c1CN1C[C@@H]2CC(C)(C)C[C@@H]2C1c1ccc(C(=O)O)cc1 (single isomer, unassigned) [34 (Isomer 2)] gave an IC50 of 180 nM. COc1cc(C)c2[nH]ccc2c1CN1CCC2(CCOC2)CC1c1ccc(C(=O)O)cc1 (single isomer, unassigned) [36 (Isomer 2), 4-(8-((5-methoxy-7-methyl-1H-indol-4-yl)methyl)-2-oxa-8-azaspiro[4.5]decan-7-yl)benzoic acid] showed an IC50 of 16.6 nM. In the case of COc1cc(C)c2[nH]ccc2c1CN1CCC2(CCOC2)CC1c1ccc(C(=O)O)cc1 (single isomer, unassigned) [36 (Isomer 3), 4-(8-((5-methoxy-7-methyl-1H-indol-4-yl)methyl)-2-oxa-8-azaspiro[4.5]decan-7-yl)benzoic acid], the IC50 is reported as 125 nM. Molecule COc1cc(C)c2[nH]ccc2c1C(C)N1CC2CCCC2C1c1ccc(C(=O)O)cc1 (single isomer, unassigned) [37 (Isomer 1), 4-(2-(1-(5-methoxy-7-methyl-1H-indol-4-yl)ethyl)octahydrocyclopenta[c]pyrrol-1-yl)benzoic acid] has an IC50 of 322 nM. In the case of COc1cc(C)c2[nH]ccc2c1C(C)N1CC2CCCC2C1c1ccc(C(=O)O)cc1 (single isomer, unassigned) [37 (Isomer 3), 4-(2-(1-(5-methoxy-7-methyl-1H-indol-4-yl)ethyl)octahydrocyclopenta[c]pyrrol-1-yl)benzoic acid], the IC50 is reported as 222 nM. COc1cc(C)c2[nH]ccc2c1C(C)N1CC2CCCC2C1c1ccc(C(=O)O)cc1 (single isomer, unassigned) [37 (Isomer 4), 4-(2-(1-(5-methoxy-7-methyl-1H-indol-4-yl)ethyl)octahydrocyclopenta[c]pyrrol-1-yl)benzoic acid] gave an IC50 of 359 nM. COc1cc(C)c2[nH]ccc2c1CN1CCC2(CCO2)CC1c1ccc(C(=O)O)cc1 (single isomer, unassigned) [38 (Isomer 4), 4-(7-((5-methoxy-7-methyl-1H-indol-4-yl)methyl)-1-oxa-7-azaspiro[3.5]nonan-6-yl)benzoic acid] gave an IC50 of 4.8 nM. COc1cc(C)c2[nH]ccc2c1CN1CC2CC(C(F)F)CC2C1c1ccc(C(=O)O)cc1 (single isomer, unassigned) [39 (Isomer 1), 4-(5-(difluoromethyl)-2-((5-methoxy-7-methyl-1H-indol-4-yl)methyl)octahydrocyclopenta[c]pyrrol-1-yl)benzoic acid] was tested, and the IC50 was 2.6 nM. Work on COc1cc(C)c2[nH]ccc2c1CN1CC2CC(C(F)F)CC2C1c1ccc(C(=O)O)cc1 (single isomer, unassigned) [39 (Isomer 2), 4-(5-(difluoromethyl)-2-((5-methoxy-7-methyl-1H-indol-4-yl)methyl)octahydrocyclopenta[c]pyrrol-1-yl)benzoic acid] yielded an IC50 of 4.1 nM. In the case of COc1cc(C)c2[nH]ccc2c1CN1CC2CC(C(F)F)CC2C1c1ccc(C(=O)O)cc1 (single isomer, unassigned) [39 (Isomer 3), 4-(5-(difluoromethyl)-2-((5-methoxy-7-methyl-1H-indol-4-yl)methyl)octahydrocyclopenta[c]pyrrol-1-yl)benzoic acid], the IC50 is reported as 7.3 nM. In the case of COc1cc(C)c2[nH]ccc2c1CN1CCC2(CC1c1ccc(C(=O)O)cc1)CC(C)(F)C2 (single isomer, unassigned) [42 (Isomer 1), 4-(2-fluoro-7-((5-methoxy-7-methyl-1H-indol-4-yl)methyl)-2-methyl-7-azaspiro[3.5]nonan-6-yl)benzoic acid], the IC50 is reported as 4 nM. Cc1cc(C)c2[nH]ccc2c1CN1CC2(CCCCC2)C1c1ccc(C(=O)O)cc1 (stereo not drawn) [Example 16, 4-(2-((5,7-dimethyl-1H-indol-4-yl)methyl)-2-azaspiro[3.5]nonan-1-yl)benzoic acid] was tested, and the IC50 was 305 nM. Work on COc1cc(C)c2[nH]ccc2c1CN1CC2(CCOCC2)CC1c1ccc(C(=O)O)cc1 (stereo not drawn) [Example 30, 4-(2-((5-methoxy-7-methyl-1H-indol-4-yl)methyl)-8-oxa-2-azaspiro[4.5]decan-3-yl)benzoic acid] yielded an IC50 of 132 nM. In the case of COc1cc(C)c2[nH]ccc2c1CN1CCC2(CCC(F)(F)C2)CC1c1ccc(C(=O)O)cc1 (stereo not drawn) [Example 41, 4-(2,2-difluoro-8-((5-methoxy-7-methyl-1H-indol-4-yl)methyl)-8-azaspiro[4.5]decan-7-yl)benzoic acid], the IC50 is reported as 20.1 nM.

Same assay, conditions: read-out: Factor B TR-FRET IC50; 10 nM his-tagged Factor B catalytic domain, 100 nM tracer, 1 h
Cc1cc(C)c2[nH]ccc2c1CN1CCC2(C[C@H]1c1ccc(C(=O)O)cc1)CC(F)(F)C2 (single isomer, unassigned) [76 (Isomer 1)] gave an IC50 of less than 2 nM. For Cc1cc(Br)c(CN2CCC3(C[C@H]2c2ccc(C(=O)O)cc2)CC(F)(F)C3)c2cc[nH]c12 (single isomer, unassigned) [78 (Isomer 1)], the IC50 was 7.4 nM. With Cc1cc(C)c2[nH]ccc2c1CN1C[C@@H]2CCCCC2C1c1ccc(C(=O)O)cc1 (stereo in doubt) [Example 10, 4-(2-((5,7-dimethyl-1H-indol-4-yl)methyl)octahydro-1H-isoindol-1-yl)benzoic acid] the IC50 was 265 nM. Cc1cc(C)c2[nH]ccc2c1CN1CC2CC2C1c1ccc(C(=O)O)cc1 (stereo not drawn) [Example 1, 4-(3-((5,7-dimethyl-1H-indol-4-yl)methyl)-3-azabicyclo[3.1.0]hexan-2-yl)benzoic acid] gave an IC50 of 923 nM. Cc1cc(C)c2[nH]ccc2c1CN1CCC(CCO)=CC1c1ccc(C(=O)O)cc1 (stereo not drawn) [Example 4, 4-(1-((5,7-dimethyl-1H-indol-4-yl)methyl)-4-(2-hydroxyethyl)-1,2,5,6-tetrahydropyridin-2-yl)benzoic acid] gave an IC50 of 173 nM. Molecule COc1cc(C)c2[nH]ccc2c1CN1CC(CF)CC1c1ccc(C(=O)O)cc1 (stereo not drawn) [Example 21, 4-(4-(fluoromethyl)-1-((5-methoxy-7-methyl-1H-indol-4-yl)methyl)pyrrolidin-2-yl)benzoic acid] has an IC50 of 844 nM. COc1cc(C)c2[nH]ccc2c1CN1CC2CN(CC(F)F)CC2C1c1ccc(C(=O)O)cc1 (stereo not drawn) [Example 23, 4-(5-(2,2-difluoroethyl)-2-((5-methoxy-7-methyl-1H-indol-4-yl)methyl)octahydropyrrolo[3,4-c]pyrrol-1-yl)benzoic acid] was tested, and the IC50 was 143 nM. Work on COc1cc(C)c2[nH]ccc2c1CN1CCCCC1c1ccc(C(=O)O)c(C(F)F)c1 (stereo not drawn) [Example 25, 2-(difluoromethyl)-4-(1-((5-methoxy-7-methyl-1H-indol-4-yl)methyl)piperidin-2-yl)benzoic acid] yielded an IC50 of 322 nM. COc1cc(C)c2[nH]ccc2c1CN1CCC2(C[C@H]1c1ccc(C(=O)O)c(C)c1)CC(F)(F)C2 [Example 62] gave an IC50 of less than 2 nM. Work on COc1cc(C)c2[nH]ccc2c1CN1CCC2(C[C@H]1c1ccc(C(=O)O)c(F)c1)CC(F)(F)C2 [Example 64] yielded an IC50 of less than 2 nM.
